These results are taken from patent US7781596B1, “Substituted 2-phenylbenzimidazoles, the production thereof and their use” (Abbott Laboratories, priority 1998, dated 2010).

Where a name gives a salt, the structure may show the parent alone. Read-outs that look alike come from different tables or passages of the source.

The test system of one data set is circulatory failure. The conditions noted are these: S. Cuzzocrea et al., Br. J. Pharmacol. 1997, 121, 1065-1074; cited from earlier work.
For data set [1] the following is noted: pH 5.
Experimental: (§1) If the measured substance is not in the form of a water-soluble salt, it was dissolved in the minimum amount of dimethyl sulfoxide and then diluted with water (final dimethyl sulfoxide concentration≦1%), after which the pH was again adjusted.
Data set [2] can be described thus: Determination of the solubility in water. The conditions noted are these: solution adjusted to pH 5 to 6 with sodium acetate, DMSO <=1% if not a water-soluble salt.
Experimental: as §1

With `NC(=O)c1cccc(N)c1` [3-aminobenzamide], the “effects in a model of circulatory failure” value in the data set with circulatory failure was “protective effects”. On to `CCN(CC)CCOc1ccc(-c2nc3c(C(N)=O)cccc3[nH]2)cc1` [Example 2, 2-(4-(2-(N,N-Diethylamino)eth-1-yloxy)phenyl)benzimidazole-4-carboxamide×2 hydrochloride], for which the solubility in water in data set [1] was over 0.5%. Consider `COc1ccc(-c2nc3cccc(C(N)=O)c3[nH]2)cc1` [NU 1076], for which the solubility in water in data set [2] is under 0.01%.
